From paper PMC9127807, “Echinocandins Localized to the Target-Harboring Cell Surface Are Not Degraded but Those Entering the Vacuole Are” (ACS Chemical Biology, 2022)
Converted amounts (≈) assume the structure as drawn. Starred links: 1 amine or outer side, 2 acyl side, 3 side chain; linkers in the order of their positions; H or OH if unused. Positions of bridges follow the written chain, without caps; N, C: chain ends. Non-standard residues stand in square brackets, D forms with d. Residues, ends and D or L forms follow the SMILES beside them. *: point of attachment. X1 = O=C([C@@H](N[*:1])[C@H](O)[C@@H](O)c1ccc(OCc2cn(CCCNc3ccc([N+](=O)[O-])c4nonc34)nn2)cc1)[*:2]; Orn(4R-OH,5R-OCH2CH2NMe3+) = C[N+](C)(C)CCO[C@@H](N[*:3])[C@H](O)C[C@H](N[*:1])C(=O)[*:2]; pTerphenylCO(4''-OnC5H11) = CCCCCOc1ccc(-c2ccc(-c3ccc(C(=O)*)cc3)cc2)cc1; Orn(4R-OH,5R-OH) = O=C([C@H](C[C@@H](O)[C@@H](O)N[*:3])N[*:1])[*:2]; hTyr(3S-OH,4S-OH) = N[C@H](C(=O)O)[C@H](O)[C@@H](O)c1ccc(O)cc1; Pro(3S-OH,4S-Me) = C[C@H]1CN[C@H](C(=O)O)[C@H]1O; Hyp = O=C(O)[C@@H]1C[C@@H](O)CN1

Tests used:
[1] = system: C. albicans SN152; test: MIC broth double-dilution assay; type: cell-based, Candida albicans; settings: strain B, echinocandin-susceptible; YPAD broth, 24 h, 30 °C, OD600 reduced by ≥75%
Experimental: (§1) Colonies were suspended in 1 mL of PBS and diluted to an optical density of 2 × 10^–4 at 600 nm (OD600) in flat-bottom 96-well microplates (Corning) with YPAD broth containing dilutions of each tested compound at concentrations ranging from 64 to 0.008 μg/mL in twofold dilutions. Control wells with yeast cells but no drug and blank wells that contained only YPAD were prepared. MIC values (Table S2) were determined after 24 h at 30 °C by measuring the OD600 using a plate reader (Infinite M200 PRO, Tecan). MIC values were defined as the point at which the OD600 was reduced by ≥75% compared to the no-drug wells. Each concentration was tested in triplicate, and the results were confirmed by two independent sets of experiments.

[2] = incubation in human plasma for 44 h at 37 °C; cited from earlier work
Text: Intending to develop echinocandins with improved chemical stability under physiological conditions, Cidara Therapeutics developed rezafungin (RZF), a novel ANF derivative with distinctive pharmacokinetic and pharmacodynamic profiles, which entered phase III trials in October 2018 (Figure 1).[18]−[21] […] Instead of the daily intravenous administration regime used for the other three echinocandins, RZF can be administered intravenous ...

[3] = system: C. glabrata ATCC 2001; settings: strain I, echinocandin-susceptible; YPAD broth, 24 h, 30 °C, OD600 reduced by ≥75%
Experimental: as §1, with “Candida strains were streaked from glycerol stock onto YPAD agar plates and grown for 24 h at 30 °C. Colonies” for “Colonies”

[4] = system: C. glabrata TGL00277; settings: strain N, echinocandin resistant FKS mutation; YPAD broth, 24 h, 30 °C, OD600 reduced by ≥75%
Experimental: as §1, with “Candida strains were streaked from glycerol stock onto YPAD agar plates and grown for 24 h at 30 °C. Colonies” for “Colonies”

[5] = system: C. albicans DPL1016 (DP-A15-10); settings: strain F, echinocandin resistant FKS mutation; YPAD broth, 24 h, 30 °C, OD600 reduced by ≥75%
Experimental: as §1, with “Candida strains were streaked from glycerol stock onto YPAD agar plates and grown for 24 h at 30 °C. Colonies” for “Colonies”

[6] = system: C. albicans SC5314; settings: strain A, echinocandin-susceptible; YPAD broth, 24 h, 30 °C, OD600 reduced by ≥75%; triplicate, two independent experiments
Experimental: as §1, with “Candida strains were streaked from glycerol stock onto YPAD agar plates and grown for 24 h at 30 °C. Colonies” for “Colonies”

[7] = system: C. albicans ATCC 10231; settings: strain D, echinocandin-susceptible; YPAD broth, 24 h, 30 °C, OD600 reduced by ≥75%
Experimental: as §1, with “Candida strains were streaked from glycerol stock onto YPAD agar plates and grown for 24 h at 30 °C. Colonies” for “Colonies”

[8] = system: C. albicans T-2068 (DP-C42); settings: strain G, echinocandin resistant FKS mutation; YPAD broth, 24 h, 30 °C, OD600 reduced by ≥75%
Experimental: as §1, with “Candida strains were streaked from glycerol stock onto YPAD agar plates and grown for 24 h at 30 °C. Colonies” for “Colonies”

[9] = system: C. glabrata ATCC 90030; settings: strain K, echinocandin-susceptible; YPAD broth, 24 h, 30 °C, OD600 reduced by ≥75%
Experimental: as §1, with “Candida strains were streaked from glycerol stock onto YPAD agar plates and grown for 24 h at 30 °C. Colonies” for “Colonies”

[10] = system: C. glabrata TGL00275; settings: strain M, echinocandin resistant FKS mutation; YPAD broth, 24 h, 30 °C, OD600 reduced by ≥75%
Experimental: as §1, with “Candida strains were streaked from glycerol stock onto YPAD agar plates and grown for 24 h at 30 °C. Colonies” for “Colonies”

[11] = system: C. glabrata EF1620; settings: strain H, echinocandin-susceptible; YPAD broth, 24 h, 30 °C, OD600 reduced by ≥75%
Experimental: as §1, with “Candida strains were streaked from glycerol stock onto YPAD agar plates and grown for 24 h at 30 °C. Colonies” for “Colonies”

[12] = system: C. albicans ATCC 24433; settings: strain C, echinocandin-susceptible; YPAD broth, 24 h, 30 °C, OD600 reduced by ≥75%
Experimental: as §1, with “Candida strains were streaked from glycerol stock onto YPAD agar plates and grown for 24 h at 30 °C. Colonies” for “Colonies”

[13] = system: C. glabrata ATCC 66032; settings: strain J, echinocandin-susceptible; YPAD broth, 24 h, 30 °C, OD600 reduced by ≥75%
Experimental: as §1, with “Candida strains were streaked from glycerol stock onto YPAD agar plates and grown for 24 h at 30 °C. Colonies” for “Colonies”

[14] = system: C. glabrata T-192 (1775); settings: strain L, echinocandin-susceptible; YPAD broth, 24 h, 30 °C, OD600 reduced by ≥75%
Experimental: as §1, with “Candida strains were streaked from glycerol stock onto YPAD agar plates and grown for 24 h at 30 °C. Colonies” for “Colonies”

[15] = system: C. albicans ATCC 90028; settings: strain E, echinocandin-susceptible; YPAD broth, 24 h, 30 °C, OD600 reduced by ≥75%
Experimental: as §1, with “Candida strains were streaked from glycerol stock onto YPAD agar plates and grown for 24 h at 30 °C. Colonies” for “Colonies”

[16] = system: C. albicans SC5314 cells; settings: incubated with cells or lysates of C. albicans SC5314, 24 h, regardless of the media used (PBS, YPAD)
Experimental: C. albicans SC5314 cells were streaked from glycerol stocks onto YPAD agar plates and grown for 24 h at 30 °C. Colonies were grown in tubes in 3 mL of YPAD broth for 24 h at 30 °C with shaking. Cultures were diluted 1:50 and incubated in 5 mL of YPAD broth for 3 h at 30 °C with shaking until log-phase growth was observed. Cultures were then centrifuged (4000 rpm, 3 min), washed with PBS buffer, and resuspended in 1 mL of PBS buffer or YPAD. Cells were incubated with TMR-based probes (1 or 3) at a final concentration of 10 μM at 30 °C with shaking in the dark for 24 h. After washing three times with PBS, cells were resuspended in 75 μL of TNE buffer (10 mM Tris, 100 mM NaCl, and 1 mM ethylenediaminetetraacetic acid, pH 8.0) in a 1.5 mL Eppendorf tube, and 0.5 mm diameter beads were added to the yeast solution. The mixture was agitated on a vortex at maximum speed for 5 min. Next, 200 μL of 2% Triton X-100 in TNE buffer (v/v) was added to the agitated solution, and then the mixture was sonicated for 15 min. To clarify the yeast lysate, the mixture was centrifuged twice (16 000g, 20 min), and the supernatant was removed and filtered using a 0.22 μm syringe filter. The samples were analyzed using analytical reverse-phase HPLC at a 550 nm wavelength. HPLC conditions: mobile phase: acetonitrile in H2O (containing 0.1% trifluoroacetic acid (v/v)), gradient from 10 to 90%; flow rate: 1 mL/min; absorbance wavelength: 550 nm. Each sample was tested in two independent sets of experiments. The percentages of intact echinocandin were determined using the area calculation function available in the Hitachi Primaide Software and are presented as means (two replicates) ± standard deviation (SD).

In the case of `CCCCCOc1ccc(-c2ccc(-c3ccc(C(=O)N[C@H]4C[C@@H](O)[C@@H](O)NC(=O)[C@@H]5[C@@H](O)[C@@H](C)CN5C(=O)[C@H]([C@@H](C)O)NC(=O)[C@H]([C@H](O)[C@@H](O)c5ccc(O)cc5)NC(=O)[C@@H]5C[C@@H](O)CN5C(=O)[C@H]([C@@H](C)O)NC4=O)cc3)cc2)cc1` [ANF, anidulafungin, reference compound] ({pTerphenylCO(4''-OnC5H11)}-[Orn(4R-OH,5R-OH)]T[Hyp][hTyr(3S-OH,4S-OH)]T[Pro(3S-OH,4S-Me)]; lactam 1-C), the MIC [1] is given as 0.008 µg/mL (≈ 0.00702 µM), the “percent of intact drug” value [2] is given as 7% and the MIC [3] is given as 0.008 µg/mL (≈ 0.00702 µM). It also gave an MIC [4] greater than 64 µg/mL, an MIC [5] of 4 µg/mL (≈ 3.51 µM) and an MIC [6] of 0.008 µg/mL (≈ 0.00702 µM). It also gave an MIC [7] of 0.016 µg/mL (≈ 0.014 µM), an MIC [8] of 4 µg/mL (≈ 3.51 µM) and an MIC [9] of 0.016 µg/mL (≈ 0.014 µM). The MIC [10] was 4 µg/mL (≈ 3.51 µM), the MIC [11] was 0.008 µg/mL (≈ 0.00702 µM) and the MIC [12] was 0.008 µg/mL (≈ 0.00702 µM). It also gave an MIC [13] of 0.016 µg/mL (≈ 0.014 µM), an MIC [14] of 0.008 µg/mL (≈ 0.00702 µM) and an MIC [15] of 0.016 µg/mL (≈ 0.014 µM).

In the case of `CCCCCOc1ccc(-c2ccc(-c3ccc(C(=O)N[C@H]4C[C@@H](O)[C@@H](OCCc5cn(CCCNC(=O)c6ccc(-c7c8ccc(=[N+](C)C)cc-8oc8cc(N(C)C)ccc78)c(C(=O)[O-])c6)nn5)NC(=O)[C@@H]5[C@@H](O)[C@@H](C)CN5C(=O)[C@H]([C@@H](C)O)NC(=O)[C@H]([C@H](O)[C@@H](O)c5ccc(O)cc5)NC(=O)[C@@H]5C[C@@H](O)CN5C(=O)[C@H]([C@@H](C)O)NC4=O)cc3)cc2)cc1` [Probe 3], the decomposition [16] was “no significant decomposition”.

`CC[C@H](C)C[C@H](C)CCCCCCCCC(=O)N[C@H]1C[C@@H](O)[C@@H](NCCN)NC(=O)[C@@H]2[C@@H](O)CCN2C(=O)[C@H]([C@H](O)CCN)NC(=O)[C@H]([C@H](O)[C@@H](O)c2ccc(O)cc2)NC(=O)[C@@H]2C[C@@H](O)CN2C(=O)[C@H]([C@@H](C)O)NC1=O` [CSF, caspofungin, reference compound] showed an MIC [1] of 0.031 µg/mL (≈ 0.0284 µM), an MIC [3] of 0.063 µg/mL (≈ 0.0576 µM) and an MIC [4] greater than 64 µg/mL. It also gave an MIC [5] of 32 µg/mL (≈ 29.3 µM), an MIC [6] of 0.031 µg/mL (≈ 0.0284 µM) and an MIC [7] of 0.063 µg/mL (≈ 0.0576 µM). The MIC [8] was 16 µg/mL (≈ 14.6 µM), the MIC [9] was 0.125 µg/mL (≈ 0.114 µM) and the MIC [10] was 16 µg/mL (≈ 14.6 µM). The MIC [11] was 0.031 µg/mL (≈ 0.0284 µM), the MIC [12] was 0.031 µg/mL (≈ 0.0284 µM) and the MIC [13] was 0.063 µg/mL (≈ 0.0576 µM). It also gave an MIC [14] of 0.016 µg/mL (≈ 0.0146 µM) and an MIC [15] of 0.063 µg/mL (≈ 0.0576 µM).

`CCCCCOc1ccc(-c2ccc(-c3ccc(C(=O)N[C@H]4C[C@@H](O)[C@@H](OCC[N+](C)(C)C)NC(=O)[C@@H]5[C@@H](O)[C@@H](C)CN5C(=O)[C@H]([C@@H](C)O)NC(=O)[C@H]([C@H](O)[C@@H](O)c5ccc(OCc6cn(CCCNc7ccc([N+](=O)[O-])c8nonc78)nn6)cc5)NC(=O)[C@@H]5C[C@@H](O)CN5C(=O)[C@H]([C@@H](C)O)NC4=O)cc3)cc2)cc1` [Probe 6] ({pTerphenylCO(4''-OnC5H11)}-[Orn(4R-OH,5R-OCH2CH2NMe3+)]T[Hyp][X1]T[Pro(3S-OH,4S-Me)]; lactam 1-C) showed an MIC [1] of 0.5 µg/mL, an MIC [3] of 1 µg/mL and an MIC [4] greater than 64 µg/mL. For the same compound, the MIC [5] was greater than 64 µg/mL, the MIC [6] was 0.5 µg/mL and the MIC [7] was 0.5 µg/mL. The MIC [8] was greater than 64 µg/mL, the MIC [9] was 1 µg/mL and the MIC [10] was greater than 64 µg/mL. It also gave an MIC [11] of 0.5 µg/mL, an MIC [12] of 0.5 µg/mL and an MIC [13] of 1 µg/mL. For the same compound, the MIC [14] was 0.5 µg/mL and the MIC [15] was 0.5 µg/mL.
